Measured values: ChEMBL document CHEMBL3991601, “The target landscape of clinical kinase drugs” (Science, 2017)
The source made the active and inactive calls.

Columns and labels:
[1] = target: Cyclin-dependent kinase 13 (Homo sapiens, UniProt Q14004)
[2] = target: T1, Discoidin domain-containing receptor 2 (Homo sapiens, UniProt Q16832)
T1 sequence (Q16832 whole entry): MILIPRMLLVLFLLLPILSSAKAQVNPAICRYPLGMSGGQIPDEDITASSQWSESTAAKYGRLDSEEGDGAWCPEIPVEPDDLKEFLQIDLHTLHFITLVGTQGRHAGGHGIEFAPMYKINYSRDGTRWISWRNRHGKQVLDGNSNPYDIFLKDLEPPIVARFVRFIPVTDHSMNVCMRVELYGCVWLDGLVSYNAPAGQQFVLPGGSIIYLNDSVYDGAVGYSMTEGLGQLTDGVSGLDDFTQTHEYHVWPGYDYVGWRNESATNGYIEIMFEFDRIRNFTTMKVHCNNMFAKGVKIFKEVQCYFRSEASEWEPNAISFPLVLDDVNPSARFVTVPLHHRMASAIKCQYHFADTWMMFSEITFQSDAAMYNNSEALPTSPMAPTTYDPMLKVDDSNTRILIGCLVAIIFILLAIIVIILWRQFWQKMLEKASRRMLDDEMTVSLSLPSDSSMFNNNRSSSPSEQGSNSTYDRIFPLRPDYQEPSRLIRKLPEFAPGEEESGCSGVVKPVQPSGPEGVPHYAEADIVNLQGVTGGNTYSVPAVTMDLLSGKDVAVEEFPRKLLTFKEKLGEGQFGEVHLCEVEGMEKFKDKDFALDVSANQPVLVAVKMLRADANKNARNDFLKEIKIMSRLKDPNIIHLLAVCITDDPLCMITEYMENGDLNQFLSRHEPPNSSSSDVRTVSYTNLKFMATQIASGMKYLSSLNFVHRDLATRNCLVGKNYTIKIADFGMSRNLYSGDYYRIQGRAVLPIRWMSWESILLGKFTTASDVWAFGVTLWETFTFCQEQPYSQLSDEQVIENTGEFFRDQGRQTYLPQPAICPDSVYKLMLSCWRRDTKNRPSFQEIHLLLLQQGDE

GTP-binding protein 4 = GTP-binding protein 4 (Homo sapiens, UniProt Q9BZE4)
Midasin = Midasin (Homo sapiens, UniProt Q9NU22)
[3] = target: T2, Serine/threonine-protein kinase Nek2 (Homo sapiens, UniProt P51955)
T2 sequence (P51955 whole entry): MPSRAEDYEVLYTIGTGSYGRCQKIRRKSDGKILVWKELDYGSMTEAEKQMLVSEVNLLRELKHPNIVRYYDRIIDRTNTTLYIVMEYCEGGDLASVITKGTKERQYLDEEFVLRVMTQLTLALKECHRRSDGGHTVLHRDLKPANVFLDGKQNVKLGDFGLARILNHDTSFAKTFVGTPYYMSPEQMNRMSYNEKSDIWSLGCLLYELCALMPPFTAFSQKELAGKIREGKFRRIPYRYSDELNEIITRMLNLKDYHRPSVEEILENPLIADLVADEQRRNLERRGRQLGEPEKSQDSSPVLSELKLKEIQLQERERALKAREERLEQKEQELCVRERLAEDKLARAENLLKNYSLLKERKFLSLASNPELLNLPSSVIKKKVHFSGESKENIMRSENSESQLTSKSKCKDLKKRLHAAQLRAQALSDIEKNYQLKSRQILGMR

[4] = target: PAS domain-containing serine/threonine-protein kinase (Homo sapiens, UniProt Q96RG2)
[5] = target: T3, Phosphorylase b kinase gamma catalytic chain, liver/testis isoform (Homo sapiens, UniProt P15735)
T3 sequence (P15735 whole entry): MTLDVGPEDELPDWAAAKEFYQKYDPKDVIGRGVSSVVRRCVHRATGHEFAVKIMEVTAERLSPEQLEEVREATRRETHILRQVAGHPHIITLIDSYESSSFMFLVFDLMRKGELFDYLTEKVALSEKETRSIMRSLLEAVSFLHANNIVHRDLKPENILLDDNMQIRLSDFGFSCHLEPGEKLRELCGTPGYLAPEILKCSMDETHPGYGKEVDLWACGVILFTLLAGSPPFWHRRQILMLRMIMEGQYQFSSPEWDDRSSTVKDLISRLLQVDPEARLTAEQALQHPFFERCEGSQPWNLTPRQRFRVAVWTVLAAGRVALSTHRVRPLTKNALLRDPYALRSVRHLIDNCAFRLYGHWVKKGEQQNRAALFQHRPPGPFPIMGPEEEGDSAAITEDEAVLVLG

[6] = target: Serine/threonine-protein kinase N1 (Homo sapiens, UniProt Q16512)
[7] = target: GTP-binding nuclear protein Ran (Homo sapiens, UniProt P62826)
ADP/ATP translocase 2 = target: T4, ADP/ATP translocase 2 (Homo sapiens, UniProt P05141)
T4 sequence (P05141 whole entry): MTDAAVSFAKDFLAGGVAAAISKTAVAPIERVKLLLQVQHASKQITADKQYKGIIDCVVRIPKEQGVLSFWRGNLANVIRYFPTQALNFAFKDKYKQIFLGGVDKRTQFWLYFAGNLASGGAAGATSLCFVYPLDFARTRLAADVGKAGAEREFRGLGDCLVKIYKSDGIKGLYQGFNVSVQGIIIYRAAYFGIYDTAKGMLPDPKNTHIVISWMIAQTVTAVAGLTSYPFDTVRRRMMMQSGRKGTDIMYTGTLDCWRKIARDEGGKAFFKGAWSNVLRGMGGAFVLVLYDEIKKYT

TGF-beta receptor type-1 = target: T5, TGF-beta receptor type-1 (Homo sapiens, UniProt P36897)
T5 sequence (P36897 whole entry): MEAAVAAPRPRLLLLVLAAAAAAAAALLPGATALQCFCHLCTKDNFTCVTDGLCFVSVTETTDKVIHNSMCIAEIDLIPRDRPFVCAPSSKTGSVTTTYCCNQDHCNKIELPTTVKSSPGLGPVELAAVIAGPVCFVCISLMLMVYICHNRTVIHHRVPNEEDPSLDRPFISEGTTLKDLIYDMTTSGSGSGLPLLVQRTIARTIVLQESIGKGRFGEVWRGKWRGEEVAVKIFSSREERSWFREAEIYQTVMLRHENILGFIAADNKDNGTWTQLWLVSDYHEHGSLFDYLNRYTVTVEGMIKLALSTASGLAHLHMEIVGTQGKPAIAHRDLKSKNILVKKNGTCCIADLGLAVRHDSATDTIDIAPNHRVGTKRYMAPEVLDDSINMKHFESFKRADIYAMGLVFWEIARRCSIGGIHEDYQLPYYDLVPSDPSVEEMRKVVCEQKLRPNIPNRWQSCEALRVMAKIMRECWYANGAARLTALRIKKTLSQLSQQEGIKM

Activated CDC42 kinase 1 = Activated CDC42 kinase 1 (Homo sapiens, UniProt Q07912)
Also: in the data inactive means no Kd found up to 30 µM.

Sequence of Serine/threonine-protein kinase N1 (Q16512 whole entry): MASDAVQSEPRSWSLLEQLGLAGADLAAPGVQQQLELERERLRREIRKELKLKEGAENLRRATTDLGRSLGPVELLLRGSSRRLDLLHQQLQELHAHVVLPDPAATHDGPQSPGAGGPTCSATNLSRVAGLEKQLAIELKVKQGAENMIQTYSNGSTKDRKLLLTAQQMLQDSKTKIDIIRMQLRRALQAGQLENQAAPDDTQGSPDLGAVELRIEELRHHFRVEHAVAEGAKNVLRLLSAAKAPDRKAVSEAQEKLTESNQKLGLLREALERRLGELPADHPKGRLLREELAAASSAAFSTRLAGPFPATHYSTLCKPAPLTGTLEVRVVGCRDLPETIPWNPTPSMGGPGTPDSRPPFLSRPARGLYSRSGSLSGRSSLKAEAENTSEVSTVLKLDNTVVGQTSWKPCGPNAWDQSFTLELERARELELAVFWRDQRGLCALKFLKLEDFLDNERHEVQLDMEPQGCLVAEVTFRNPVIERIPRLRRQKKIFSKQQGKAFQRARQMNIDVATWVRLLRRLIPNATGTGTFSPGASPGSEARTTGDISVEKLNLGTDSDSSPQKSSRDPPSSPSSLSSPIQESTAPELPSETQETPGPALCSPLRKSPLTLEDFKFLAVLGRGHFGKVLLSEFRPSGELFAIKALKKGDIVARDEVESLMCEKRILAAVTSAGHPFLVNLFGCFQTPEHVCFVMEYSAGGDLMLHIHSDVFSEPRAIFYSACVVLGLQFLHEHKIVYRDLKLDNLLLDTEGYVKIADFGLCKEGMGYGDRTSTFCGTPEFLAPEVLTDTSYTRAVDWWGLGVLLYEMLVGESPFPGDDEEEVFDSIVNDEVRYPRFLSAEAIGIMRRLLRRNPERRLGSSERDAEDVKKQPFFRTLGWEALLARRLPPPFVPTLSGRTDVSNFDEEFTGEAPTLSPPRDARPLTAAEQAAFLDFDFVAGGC
Sequence of Activated CDC42 kinase 1 (Q07912 whole entry): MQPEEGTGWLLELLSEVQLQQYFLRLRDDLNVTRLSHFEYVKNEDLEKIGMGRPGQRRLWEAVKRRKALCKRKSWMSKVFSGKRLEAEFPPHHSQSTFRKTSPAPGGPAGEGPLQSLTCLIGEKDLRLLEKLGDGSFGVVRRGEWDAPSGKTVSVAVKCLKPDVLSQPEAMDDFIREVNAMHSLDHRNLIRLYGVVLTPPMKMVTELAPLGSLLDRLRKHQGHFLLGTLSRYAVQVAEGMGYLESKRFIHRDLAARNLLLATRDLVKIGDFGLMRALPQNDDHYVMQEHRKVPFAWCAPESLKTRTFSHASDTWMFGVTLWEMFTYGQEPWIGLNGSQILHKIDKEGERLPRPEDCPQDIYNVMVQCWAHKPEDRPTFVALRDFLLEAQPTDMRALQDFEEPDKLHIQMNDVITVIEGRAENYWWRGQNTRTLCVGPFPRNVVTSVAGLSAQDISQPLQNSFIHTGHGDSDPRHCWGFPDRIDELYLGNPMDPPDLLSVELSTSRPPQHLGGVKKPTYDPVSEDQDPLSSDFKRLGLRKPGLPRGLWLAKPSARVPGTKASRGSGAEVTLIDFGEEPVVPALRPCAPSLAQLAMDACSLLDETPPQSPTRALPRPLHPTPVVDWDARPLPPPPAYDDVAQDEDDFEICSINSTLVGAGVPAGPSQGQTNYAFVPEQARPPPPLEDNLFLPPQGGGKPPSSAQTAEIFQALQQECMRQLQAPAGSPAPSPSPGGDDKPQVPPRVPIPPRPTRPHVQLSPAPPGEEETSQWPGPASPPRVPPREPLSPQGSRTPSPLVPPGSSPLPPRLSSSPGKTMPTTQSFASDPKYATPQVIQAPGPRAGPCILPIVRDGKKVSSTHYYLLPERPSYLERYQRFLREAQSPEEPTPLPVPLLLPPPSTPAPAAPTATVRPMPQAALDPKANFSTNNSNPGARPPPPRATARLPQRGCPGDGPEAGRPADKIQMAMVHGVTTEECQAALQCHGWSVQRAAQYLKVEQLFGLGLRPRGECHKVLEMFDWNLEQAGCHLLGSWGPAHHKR
Sequence of PAS domain-containing serine/threonine-protein kinase (Q96RG2 whole entry, the tested form may be a part, canonical isoform): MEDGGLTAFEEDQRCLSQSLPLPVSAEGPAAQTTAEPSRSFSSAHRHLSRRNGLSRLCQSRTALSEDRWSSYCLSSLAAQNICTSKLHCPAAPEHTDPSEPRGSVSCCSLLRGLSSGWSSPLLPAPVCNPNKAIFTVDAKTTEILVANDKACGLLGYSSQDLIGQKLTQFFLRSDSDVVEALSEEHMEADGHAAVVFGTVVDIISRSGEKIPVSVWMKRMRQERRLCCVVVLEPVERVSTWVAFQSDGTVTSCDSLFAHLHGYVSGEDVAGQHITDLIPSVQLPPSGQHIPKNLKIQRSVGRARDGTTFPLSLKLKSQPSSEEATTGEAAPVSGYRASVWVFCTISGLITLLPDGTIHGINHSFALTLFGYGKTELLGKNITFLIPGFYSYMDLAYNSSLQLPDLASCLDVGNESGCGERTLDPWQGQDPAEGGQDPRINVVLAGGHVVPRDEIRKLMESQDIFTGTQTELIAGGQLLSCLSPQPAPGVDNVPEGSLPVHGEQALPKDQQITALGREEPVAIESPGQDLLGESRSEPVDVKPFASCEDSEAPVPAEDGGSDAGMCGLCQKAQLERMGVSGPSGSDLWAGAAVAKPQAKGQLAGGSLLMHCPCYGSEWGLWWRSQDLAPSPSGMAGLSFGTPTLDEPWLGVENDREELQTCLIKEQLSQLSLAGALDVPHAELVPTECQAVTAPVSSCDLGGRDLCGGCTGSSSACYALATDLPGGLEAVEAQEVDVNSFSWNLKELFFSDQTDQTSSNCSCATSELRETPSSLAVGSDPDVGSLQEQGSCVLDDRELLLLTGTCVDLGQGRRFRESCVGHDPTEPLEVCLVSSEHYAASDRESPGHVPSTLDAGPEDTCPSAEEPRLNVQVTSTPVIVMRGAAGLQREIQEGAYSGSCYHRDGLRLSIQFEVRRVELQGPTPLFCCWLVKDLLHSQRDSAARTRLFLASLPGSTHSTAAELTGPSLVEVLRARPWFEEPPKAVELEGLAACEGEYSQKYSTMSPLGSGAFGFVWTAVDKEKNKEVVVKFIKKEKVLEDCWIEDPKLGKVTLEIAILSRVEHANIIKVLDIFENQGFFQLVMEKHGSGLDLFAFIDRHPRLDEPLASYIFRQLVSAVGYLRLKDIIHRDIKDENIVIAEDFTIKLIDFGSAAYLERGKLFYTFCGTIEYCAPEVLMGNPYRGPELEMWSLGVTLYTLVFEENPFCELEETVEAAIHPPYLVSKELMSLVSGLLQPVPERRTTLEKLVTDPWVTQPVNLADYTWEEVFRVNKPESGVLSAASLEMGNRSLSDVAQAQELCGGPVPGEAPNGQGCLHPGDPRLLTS
Sequence of Cyclin-dependent kinase 13 (Q14004 whole entry, the tested form may be a part): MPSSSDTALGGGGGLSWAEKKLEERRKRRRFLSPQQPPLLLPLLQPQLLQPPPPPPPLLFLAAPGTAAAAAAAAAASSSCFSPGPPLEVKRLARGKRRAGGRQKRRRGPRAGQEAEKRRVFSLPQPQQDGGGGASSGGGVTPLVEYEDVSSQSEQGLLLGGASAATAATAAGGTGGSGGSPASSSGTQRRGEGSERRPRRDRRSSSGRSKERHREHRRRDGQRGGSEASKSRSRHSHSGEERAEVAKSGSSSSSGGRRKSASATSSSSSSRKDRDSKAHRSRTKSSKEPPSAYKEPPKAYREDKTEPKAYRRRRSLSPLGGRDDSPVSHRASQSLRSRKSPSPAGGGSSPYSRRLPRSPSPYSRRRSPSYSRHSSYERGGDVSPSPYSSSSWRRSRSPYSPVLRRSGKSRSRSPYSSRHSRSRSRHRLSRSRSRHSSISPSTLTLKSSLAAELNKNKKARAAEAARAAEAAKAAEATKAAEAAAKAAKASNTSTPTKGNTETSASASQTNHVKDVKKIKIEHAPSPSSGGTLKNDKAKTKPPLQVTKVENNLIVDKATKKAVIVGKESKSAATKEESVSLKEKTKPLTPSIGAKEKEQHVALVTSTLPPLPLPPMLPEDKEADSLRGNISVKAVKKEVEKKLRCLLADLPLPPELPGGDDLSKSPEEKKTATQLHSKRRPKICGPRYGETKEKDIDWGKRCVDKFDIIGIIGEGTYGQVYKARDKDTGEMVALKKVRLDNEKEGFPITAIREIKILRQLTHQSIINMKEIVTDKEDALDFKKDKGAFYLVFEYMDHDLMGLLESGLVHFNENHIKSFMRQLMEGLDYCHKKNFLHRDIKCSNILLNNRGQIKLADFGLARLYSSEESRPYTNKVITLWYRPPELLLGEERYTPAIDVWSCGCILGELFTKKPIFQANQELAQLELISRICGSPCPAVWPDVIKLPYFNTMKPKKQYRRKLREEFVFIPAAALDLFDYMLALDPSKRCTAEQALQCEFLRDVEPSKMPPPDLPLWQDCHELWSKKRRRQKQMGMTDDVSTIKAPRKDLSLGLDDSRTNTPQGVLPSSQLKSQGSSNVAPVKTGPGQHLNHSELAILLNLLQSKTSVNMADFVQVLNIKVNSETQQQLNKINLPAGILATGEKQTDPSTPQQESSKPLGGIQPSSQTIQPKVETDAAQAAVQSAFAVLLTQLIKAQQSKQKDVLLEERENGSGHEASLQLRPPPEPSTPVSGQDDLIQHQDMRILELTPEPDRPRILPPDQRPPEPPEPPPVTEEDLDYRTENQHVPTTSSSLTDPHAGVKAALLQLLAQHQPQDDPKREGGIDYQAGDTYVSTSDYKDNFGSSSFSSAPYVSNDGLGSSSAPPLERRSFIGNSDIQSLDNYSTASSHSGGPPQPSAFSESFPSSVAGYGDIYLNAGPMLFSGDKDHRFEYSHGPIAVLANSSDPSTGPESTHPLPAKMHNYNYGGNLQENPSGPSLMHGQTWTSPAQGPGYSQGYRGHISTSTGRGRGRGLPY

| Structure (SMILES) | Kd [1] | Kd [2] | Kd (GTP-binding protein 4) | Kd (Midasin) | Kd [3] | Kd [4] | Kd [5] | Kd [6] | Kd [7] | Kd (ADP/ATP translocase 2) | Kd (TGF-beta receptor type-1) | Kd (Activated CDC42 kinase 1) |
| --- | --- | --- | --- | --- | --- | --- | --- | --- | --- | --- | --- | --- |
| CCCCCCCCCCCCCCCCCCOP(=O)([O-])OC1CC[N+](C)(C)CC1 [PERIFOSINE] | > 30 µM (inactive) | > 30 µM (inactive) | > 30 µM (inactive) | > 30 µM (inactive) | > 30 µM (inactive) | > 30 µM (inactive) | > 30 µM (inactive) | > 30 µM (inactive) | > 30 µM (inactive) | > 30 µM (inactive) | > 30 µM (inactive) | > 30 µM (inactive) |
| Cc1cnc(NC(=O)Nc2cc(Br)c(C)cc2OC[C@@H]2CNCCO2)cn1 [RABUSERTIB] | > 30 µM (inactive) | > 30 µM (inactive) | > 30 µM (inactive) | > 30 µM (inactive) | > 30 µM (inactive) | > 30 µM (inactive) | > 30 µM (inactive) | > 30 µM (inactive) | > 30 µM (inactive) | > 30 µM (inactive) | > 30 µM (inactive) | > 30 µM (inactive) |
| C=CC(=O)N1CCC[C@H](n2c(=O)n(-c3ccc(Oc4ccccc4)cc3)c3c(N)ncnc32)C1 | > 30 µM (inactive) | > 30 µM (inactive) | > 30 µM (inactive) | > 30 µM (inactive) | > 30 µM (inactive) | > 30 µM (inactive) | > 30 µM (inactive) | > 30 µM (inactive) | > 30 µM (inactive) | > 30 µM (inactive) | > 30 µM (inactive) | > 30 µM (inactive) |
| COc1ccc(S(=O)(=O)N(C(C)=O)c2ccccc2/C=C/c2cc[n+]([O-])cc2)cc1 [HMN-214] | > 30 µM (inactive) | > 30 µM (inactive) | > 30 µM (inactive) | > 30 µM (inactive) | > 30 µM (inactive) | > 30 µM (inactive) | > 30 µM (inactive) | > 30 µM (inactive) | > 30 µM (inactive) | > 30 µM (inactive) | > 30 µM (inactive) | > 30 µM (inactive) |
| COc1cc2c(Nc3ccc(Cl)c(Cl)c3F)ncnc2cc1OC[C@@H]1C[C@@H]2CN(C)C[C@@H]2C1 [TESEVATINIB] | > 30 µM (inactive) | 1.52 µM (active) | > 30 µM (inactive) | > 30 µM (inactive) | > 30 µM (inactive) | > 30 µM (inactive) | > 30 µM (inactive) | > 30 µM (inactive) | > 30 µM (inactive) | > 30 µM (inactive) | 3.32 µM (active) | > 30 µM (inactive) |
| CO[C@H]1C[C@@H]2CC[C@@H](C)[C@@](O)(O2)C(=O)C(=O)N2CCCC[C@H]2C(=O)O[C@H]([C@H](C)C[C@@H]2CC[C@@H](OC(=O)C(C)(CO)CO)[C@H](OC)C2)CC(=O)[C@H](C)/C=C(\C)[C@@H](O)[C@@H](OC)C(=O)[C@H](C)C[C@H](C)/C=C/C=C/C=C/1C [TEMSIROLIMUS] | > 30 µM (inactive) | > 30 µM (inactive) | > 30 µM (inactive) | > 30 µM (inactive) | > 30 µM (inactive) | > 30 µM (inactive) | > 30 µM (inactive) | > 30 µM (inactive) | > 30 µM (inactive) | > 30 µM (inactive) | > 30 µM (inactive) | > 30 µM (inactive) |
| O=c1[nH]ccc2cc(OC3CCNCC3)ccc12 [SAR-407899 FREE BASE] | > 30 µM (inactive) | > 30 µM (inactive) | > 30 µM (inactive) | > 30 µM (inactive) | > 30 µM (inactive) | > 30 µM (inactive) | > 30 µM (inactive) | 0.019 µM (active) | > 30 µM (inactive) | > 30 µM (inactive) | > 30 µM (inactive) | > 30 µM (inactive) |

The next lines start with the values.

| Kd [1] | Kd [2] | Kd (GTP-binding protein 4) | Kd (Midasin) | Kd [3] | Kd [4] | Kd [5] | Kd [6] | Kd [7] | Kd (ADP/ATP translocase 2) | Kd (TGF-beta receptor type-1) | Kd (Activated CDC42 kinase 1) | Structure (SMILES) |
| --- | --- | --- | --- | --- | --- | --- | --- | --- | --- | --- | --- | --- |
| > 30 µM (inactive) | > 30 µM (inactive) | > 30 µM (inactive) | > 30 µM (inactive) | > 30 µM (inactive) | > 30 µM (inactive) | > 30 µM (inactive) | > 30 µM (inactive) | > 30 µM (inactive) | > 30 µM (inactive) | > 30 µM (inactive) | > 30 µM (inactive) | COc1ncc(-c2ccc3nccc(-c4ccnnc4)c3c2)cc1NS(=O)(=O)c1ccc(F)cc1F [OMIPALISIB] |
| > 30 µM (inactive) | 3.25 µM (active) | > 30 µM (inactive) | > 30 µM (inactive) | > 30 µM (inactive) | > 30 µM (inactive) | > 30 µM (inactive) | > 30 µM (inactive) | > 30 µM (inactive) | > 30 µM (inactive) | > 30 µM (inactive) | > 30 µM (inactive) | COCc1c(-c2ccc(NC(=O)Nc3cc(C(F)(F)F)ccc3F)c(F)c2)c2c(N)ncnn2c1CN1CCOCC1 |
| > 30 µM (inactive) | > 30 µM (inactive) | > 30 µM (inactive) | > 30 µM (inactive) | > 30 µM (inactive) | > 30 µM (inactive) | > 30 µM (inactive) | > 30 µM (inactive) | > 30 µM (inactive) | > 30 µM (inactive) | > 30 µM (inactive) | > 30 µM (inactive) | Cn1cnc2c(F)c(Nc3ccc(Br)cc3F)c(C(=O)NOCCO)cc21 [BINIMETINIB] |
| > 30 µM (inactive) | > 30 µM (inactive) | > 30 µM (inactive) | > 30 µM (inactive) | > 30 µM (inactive) | > 30 µM (inactive) | > 30 µM (inactive) | > 30 µM (inactive) | > 30 µM (inactive) | > 30 µM (inactive) | > 30 µM (inactive) | > 30 µM (inactive) | COc1c(OCCCN2CCOCC2)ccc2c1N=C(NC(=O)c1cnc(N)nc1)N1CCN=C21 [COPANLISIB] |
